In ChEMBL document CHEMBL1137318, “Dipyridyl thiosemicarbazone chelators with potent and selective antitumor activity form iron complexes with redox activity” (J Med Chem, 2006):
Activity calls are given as the source filed them. The rule behind the calls is not given here.

Columns and labels:
[1] = Increase in Fe(3+)-mediated ascorbate oxidation at IBE of 1 relative to control; format: functional
[2] = Increase in Fe(3+)-mediated ascorbate oxidation at IBE of 3 relative to control; format: functional
[3] = Increase in Fe(2+)-mediated hydroxyl radical production measured as hydroxylation of benzoate at IBE of 3 relative to control; format: functional
[4] = Increase in Fe(2+)-mediated hydroxyl radical production measured as hydroxylation of benzoate at IBE of 1 relative to control; format: functional
[5] = Inhibition of Fe(3+)-mediated ascorbate oxidation at IBE of 0.1 relative to control; format: functional; conditions: dose or concentration not given here
[6] = Inhibition of Fe(3+)-mediated ascorbate oxidation at IBE of 1 relative to control; format: functional; conditions: dose or concentration not given here
[7] = Inhibition of Fe(3+)-mediated ascorbate oxidation at IBE of 3 relative to control; format: functional; conditions: dose or concentration not given here
[8] = Inhibition of hydroxylation of benzoate in presence of Fe(II) at IBE of 1 relative to control; format: functional; conditions: dose or concentration not given here
[9] = Inhibition of hydroxylation of benzoate in presence of Fe(II) at IBE of 3 relative to control; format: functional; conditions: dose or concentration not given here
SK-N-MC = experiment: Antiproliferative activity against human SK-N-MC cells after 96 hrs by MTT assay; format: functional, cell-based
[10] = Increase in Fe(3+)-mediated ascorbate oxidation at IBE of 0.1 relative to control; format: functional
Nucleic Acid = experiment: Binding affinity to DNA measured as hypochromicity of UV-vis spectra; format: nucleic-acid assay

| SMILES | Activity [1] | Activity [2] | Activity [3] | IC50 (SK-N-MC) | further results |
| --- | --- | --- | --- | --- | --- |
| O=C(O)CN(CCN(CC(=O)O)CC(=O)O)CC(=O)O | 475% | 482% | 343% |  | Activity [4]: 309% |
| CC(=O)N(O)CCCCCNC(=O)CCC(=O)N(O)CCCCCNC(=O)CCC(=O)N(O)CCCCCN [DEFEROXAMINE] |  |  |  | 8.58 µM | inhibition [5]: 79%; inhibition [6]: 60%; inhibition [7]: 59%; inhibition [8]: 56%; inhibition [9]: 56% |
| CN(C)C(=S)NN=C(c1ccccn1)c1ccccn1 | 439% | 406% | Active | 0.01 µM | Activity [10]: Active |
| COc1cccc2c1C(=O)c1c(O)c3c(c(O)c1C2=O)C[C@@](O)(C(=O)CO)C[C@@H]3O[C@H]1C[C@H](N)[C@H](O)[C@H](C)O1 |  |  |  |  | Activity (Nucleic Acid): 36% |
